Experimental data reported in US12546785B2, “IL-17F and IL-17A-specific capture agents, compositions, and methods of using and making” (Regeneron Pharmaceuticals, Inc., priority 2017, dated 2026).
Entries after “also recorded” stand apart in the source; their conditions may differ. Bridge positions count the residues as written; N and C are the ends. Square brackets hold non-standard residues; d marks the D form. Triazole bridges read from a SMILES are 1,4-linked. Peptide text beside a SMILES is read from it. * marks the point of attachment. ξ: configuration not given here. Biotinyl(3aR,4R,6aS) = O=C1N[C@@H]2[C@@H](CS[C@@H]2CCCCC(=O)*)N1; X1 = O=C(CCCCC1SC[C@H]2NC(=O)N[C@@H]12)NCCCOCCOCCOCCCN*; Lys(N3) = [N-]=[N+]=NCCCC[C@H](N)C(=O)O; dThr(3ξ) = CC(O)[C@@H](N)C(=O)O; Thr(3ξ) = CC(O)[C@H](N)C(=O)O; AEEEA = NCCOCCOCCOCC(=O)O; Pra = C#CC[C@H](N)C(=O)O

Legend:
[1] = target: T1, full-length His-tagged IL-17F protein (Homo sapiens, UniProt Q96PD4); assay: Sandwich ELISA: IL-17F captured by ligand immobilized on NeutrAvidin plate; format: binding; settings: for binding affinity compared, in words: sandwich ELISA
T1 construct: Full-length His-tagged IL-17F protein (ab167911, Abcam) was serially diluted in Wash Buffer; purchased Abcam ab167911
T1 sequence (Q96PD4 31-163): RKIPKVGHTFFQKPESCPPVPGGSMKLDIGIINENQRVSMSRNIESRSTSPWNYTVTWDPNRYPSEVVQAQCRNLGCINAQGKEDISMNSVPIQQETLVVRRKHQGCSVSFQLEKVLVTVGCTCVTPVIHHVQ
Method: Sandwich ELISA. A black 96-well NeutrAvidin Coated High Binding Capacity plate (15510, Pierce) was coated with 2 μM macrocyclic peptide ligand in TBS (25 mM Tris-HCl, 150 mM NaCl, pH 7.6) for 2 h at room temperature. Biotinylated monoclonal anti-IL17F (TA319597, Origene) was coated at 4 μg/mL in TBS as a control. The plate was aspirated and then washed with TBS (5×) and Wash Buffer (0.05% (v/v) Tween-20 in PBS, 1×). Full-length His-tagged IL-17F protein (ab167911, Abcam) was serially diluted in Wash Buffer (from 800 to 0 nM) and incubated in the designated microwells for 90 min at room temperature. Microwells were aspirated and subsequently washed with Wash Buffer (10×). To detect the bound IL-17F protein, Alkaline Phosphatase (AP)-conjugated Anti-6X His tag® antibody [HIS-1] (ab49746, Abcam) was prepared at 1:10,000 dilution and added to the microwells for 1 h at room temperature. The plate was aspirated and washed with Wash Buffer (11×). AttoPhos® AP Fluorescent Substrate System (S1000, Promega) was employed to develop the microwells. Using an excitation wavelength of 430 nm, fluorescent emission at 535 nm was recorded by Beckman Coulter DTX880 photometer. Titration curves were fit using a four-parameter regression curve fitting program (Origin 8.5) to determine EC50 values.
(§1) For these assays, a dilution series of full-length His-tagged IL-17F protein was captured using the macrocyclic peptide ligands immobilized on a NeutrAvidin-coated plate.
Sandwich ELISA. These assays were performed using the same protocol that was used to evaluate the IL-17F Epitope1 targeted ligands.
as §1

[2] = target: T2, IL-17F protein (Homo sapiens, UniProt Q96PD4); assay: IL-17F binding in a background of human serum, surface-immobilized ligand; settings: for IL-17F binding efficiency in human serum: up to 10% (v/v) serum
T2 construct: His tag
T2 sequence (Q96PD4 31-163): T1 sequence (Q96PD4 31-163)
Source text: Binding to IL-17F in 25% (v/v) serum is also detectable.
Target binding in biologically complex samples was interrogated by contacting surface-immobilized macrocycles with IL-17F protein in a background of human serum.

[3] = system: trypsin; assay: Trypsin protease digestion, analytical HPLC; format: in vitro ADME; settings: trypsin 1 h at 37° C., analytical HPLC at 215 nm
Method: Bi-LF Biotin-PEG3-Cy(RSYNKX1X2) (SEQ ID NO:102)-PEG3-Cy(RRATSX1X2) (SEQ ID NO:83) (X1=azidolysine and X2=propargylglycine) was incubated with trypsin to study its susceptibility to protease digestion. Trypsin can cleave peptides and proteins on the C-terminal side of lysine and arginine L-amino acids. For this assay, test compounds were treated with trypsin protease (1 h at 37° C.) or left untreated as a control. In an Eppendorf tube, 4 μL of trypsin solution (10 μg/mL in 1 mM HCl) and 80 pmol of biligand were added to TBS for a final volume of 20 μL. The solution was incubated for 1 h at 37° C., and then further diluted with 80 μL TBS. 50 μL of each sample was injected into a Dionex Ultimate 3000 series analytical HPLC fitted with a Phenomenex Luna-C18 column, and eluted with a gradient of 10%-62% acetonitrile in 0.1% TFA (v/v) in water over 45 min. The samples were monitored at 215 nm.

[4] = target: T2, IL-17F protein; assay: Fluorescence polarization titration in solution; format: binding; settings: for Kd: 5-FITC-tagged macrocycles, in solution; for standard Gibbs free energy change (ΔG°=RTlnKD) of binding to IL-17F: 25° C.
Method: The bonding affinities of the macrocycles were tested in solution by titrating the recombinant human IL-17F protein against fluorescein 5-isothiocyanate (5-FITC)-tagged macrocycles by fluorescence polarization. […] The structure of LA3 (SEQ ID NO:44), the lead macrocycle developed against IL-17A Epitope3, is shown below (X=PEG3-biotin). MALDI-TOF MS (m/z): calcd. for C62H98N22O13S (M+H) 1391.74; found 1392.36.

[5] = target: T3, His-tagged IL-17F Epitope1 (C48S) (Homo sapiens, UniProt Q96PD4); assay: Assay to determine orientation of macrocycle binding to IL-17F Epitope1 (point ELISA with His-tagged epitopes); settings: epitope 2 μM, unscrambled
T3 construct: made in house; host or cells: chemical peptide synthesis
Method: (§2) Assay to determine orientation of macrocycle binding to IL-17F Epitope1. A black 96-well NeutrAvidin Coated High Binding Capacity plate (15510, Pierce) was coated with 2 μM macrocyclic peptide ligand in TBS (pH 7.6) for 2 h at room temperature. Biotinylated monoclonal anti-IL17F (TA319597, Origene) was coated at 4 μg/mL in TBS as a control. The plate was aspirated and then washed with TBS (5×) and Wash Buffer (0.05% (v/v) Tween-20 in PBS, 1×). Chemically synthesized His-tagged IL-17F epitopes were prepared at 2 μM in Wash Buffer and incubated in the designated microwells for 90 min at room temperature. Wash Buffer without epitope was added as a control. Microwells were aspirated and subsequently washed with Wash Buffer (10×). To detect the bound IL-17F epitopes, Alkaline Phosphatase (AP)-conjugated Anti-6X His tag® antibody [HIS-1] (ab49746, Abcam) was prepared at 1:10,000 dilution and added to the microwells for 1 h at room temperature. The plate was aspirated and washed with Wash Buffer (11×). AttoPhos® AP Fluorescent Substrate System (S1000, Promega) was employed to develop the microwells. Using an excitation wavelength of 430 nm, fluorescent emission at 535 nm was recorded by Beckman Coulter DTX880 photometer. Data are shown after subtraction of the no-epitope background.
(§3) For this experiment, the IL-17F Epitope1 was re-synthesized with a His6 assay handle and C48S substitution instead of a click handle. Two additional His-tagged IL-17F epitopes were synthesized to contain strategic scrambling of the sequences either N-terminal or C-terminal to C48S (scrambled residues are shown in italics): • 1) His6-PEG3-[…] (SEQ ID NO:39); • 2) His6-PEG3-[…] (scrambled C-terminal to click handle; SEQ ID NO:40); • 3) His6-PEG3-[…] (scrambled N-terminal to click handle; SEQ ID NO:41).
(§4) In anticipation of forming a biligand with LF2 (SEQ ID NO: 28), it was important to gain insight on whether LF1 (SEQ ID NO:9) preferentially binds to the N- or C-terminus of Epitope1. Therefore, two His-tagged IL-17F epitopes were generated, scrambling the sequence either N-terminal or C-terminal to the location of the azide click handle. His6 assay handle and C48S substitution instead of a click handle. The scrambled amino acids are shown in italics. MALDI-TOF MS (m/z): calculated for C116H163N37O31 (M+H) 2571.23; found 2571.57.

[6] = system: His-tagged IL-17F Epitope1 (C48S); assay: as above; settings: for ELISA signal for epitope scrambled C-terminal to click handle / binding to epitope scrambled N-terminal to click handle: epitope 2 μM
Method: as §2, §3, §4

Row | Compound | IL-17F binding efficiency in human serum [2] | susceptibility to trypsin digestion [3] | binding affinity compared, in words ([1]; IL-17F) | Kd [4] | standard Gibbs free energy change (ΔG°=RTlnKD) of binding to IL-17F [4] | ELISA signal for His-tagged IL-17F Epitope1 (C48S) [5] | ELISA signal for epitope scrambled C-terminal to click handle [6] | binding to epitope scrambled N-terminal to click handle [6] | further results
1 | CC(O)[C@@H]1NC(=O)[C@H](C)NC(=O)[C@H](CCCNC(=N)N)NC(=O)[C@H](CCCNC(=N)N)NC(=O)[C@@H](NC(=O)COCCOCCOCCNC(=O)[C@@H]2CCCCn3cc(nn3)C[C@H](NC(=O)COCCOCCOCCNC(=O)CCCC[C@H]3SC[C@H]4NC(=O)N[C@H]43)C(=O)N[C@@H](CCCNC(=N)N)C(=O)N[C@@H](CO)C(=O)N[C@@H](Cc3ccc(O)cc3)C(=O)N[C@@H](CC(N)=O)C(=O)N[C@@H](CCCCN)C(=O)N2)Cc2cn(nn2)CCCC[C@@H](C(N)=O)NC(=O)[C@H](CO)NC1=O (stereo partly drawn) [Biotin-PEG3-Cy(RSYNKX1X2)-PEG3-Cy(RRATSX1X2)] ({Biotinyl(3aR,4R,6aS)-AEEEA}-[Pra]RSYNK[Lys(N3)][AEEEA][Pra]RRA[Thr(3ξ)]S[Lys(N3)]-NH2; triazole 1-7, 9-15) | no reduction in binding efficiency | trypsin digestion indeed occurred | – | – | – | – | – | – | bivalent interaction stronger than the other biligands ([1]; IL-17F): at least 16 times; improvement in affinity relative to the individual PCC macrocyclic ligands ([1]; IL-17F): > 100 fold; binding to IL-17F in human serum ([2]; 25% (v/v) serum): detectable
2 | C=C1N[C@@H](CCCCN)C(=O)N[C@H](C(N)=O)CCCCn2cc(nn2)C[C@H](NC(=O)COCCOCCOCCNC(=O)CCCC[C@@H]2SC[C@@H]3NC(=O)N[C@@H]32)C(=O)N[C@@H](CCCNC(=N)N)C(=O)N[C@@H](CO)C(=O)N[C@@H](Cc2ccc(O)cc2)C(=O)N[C@H]1CC(N)=O [Cy(RSYNKX1X2), Biotin-PEG3-Cy(RSYNKXIX2)] | reduced intensity | – | exceeds the binding affinity of the similarly assayed biotinylated monoclonal anti-IL17F | 28 ± 9 nM | -10.3 kcal/mol | – | – | – | Kd ([1]; against His-tagged IL-17F): 15 nM; EC50 ([1]; surface-immobilized ligand, dilution series of His-tagged IL-17F): 15 ± 5 nM
3 | CC(O)[C@@H]1NC(=O)[C@H](C)NC(=O)[C@H](CCCNC(=N)N)NC(=O)[C@H](CCCNC(=N)N)NC(=O)[C@@H](N)Cc2cn(nn2)CCCC[C@@H](C(=O)NCCCOCCOCCOCCCNC(=O)CCCCC2SC[C@H]3NC(=O)N[C@@H]23)NC(=O)[C@H](CO)NC1=O (stereo partly shown) [Cy(RRATSX1X2), Cy(RRATSX1X2)-PEG3-biotin] (H-[Pra]RRA[Thr(3ξ)]S[Lys(N3)]-X1; triazole 1-7) | no reduction in IL-17F binding efficiency | – | – | 50 ± 15 nM | -9.9 kcal/mol | positive ELISA signals | positive ELISA signals | Binding was destroyed | preferred binding region within IL-17F Epitope1 ([6]; scrambled N- or C-terminus peptides): preferentially bind to the N-terminal portion of Epitope1
4 | CC(O)[C@@H]1NC(=O)[C@H](C)NC(=O)[C@@H](CCCNC(=N)N)NC(=O)[C@@H](CCCNC(=N)N)NC(=O)[C@@H](NC(=O)COCCOCCOCCNC(=O)[C@@H]2CCCCn3cc(nn3)C[C@H](NC(=O)COCCOCCOCCNC(=O)CCCC[C@H]3SC[C@H]4NC(=O)N[C@H]43)C(=O)N[C@H](CCCNC(=N)N)C(=O)N[C@@H](CO)C(=O)N[C@@H](Cc3ccc(O)cc3)C(=O)N[C@@H](CC(N)=O)C(=O)N[C@H](CCCCN)C(=O)N2)Cc2cn(nn2)CCCC[C@@H](C(N)=O)NC(=O)[C@H](CO)NC1=O (stereo partly drawn) [Bi-LS, Biotin-PEG3-Cy(rSYNkX1X2)-PEG3-Cy(rrATSX1X2)] ({Biotinyl(3aR,4R,6aS)-AEEEA}-[Pra][dR]SYN[dK][Lys(N3)][AEEEA][Pra][dR][dR]A[Thr(3ξ)]S[Lys(N3)]-NH2; triazole 1-7, 9-15) | – | resistant to trypsin digestion | slightly weaker binding | – | – | – | – | – | –
5 | CC(O)[C@H]1NC(=O)[C@@H](C)NC(=O)[C@@H](CCCNC(=N)N)NC(=O)[C@@H](CCCNC(=N)N)NC(=O)[C@@H](NC(=O)COCCOCCOCCNC(=O)[C@@H]2CCCCn3cc(nn3)C[C@H](NC(=O)COCCOCCOCCNC(=O)CCCC[C@H]3SC[C@H]4NC(=O)N[C@H]43)C(=O)N[C@H](CCCNC(=N)N)C(=O)N[C@H](CO)C(=O)N[C@H](Cc3ccc(O)cc3)C(=O)N[C@H](CC(N)=O)C(=O)N[C@H](CCCCN)C(=O)N2)Cc2cn(nn2)CCCC[C@@H](C(N)=O)NC(=O)[C@@H](CO)NC1=O (stereo partly drawn) [Bi-LG, Biotin-PEG3-Cy(rsynkX1X2)-PEG3-Cy(rratsX1X2)] ({Biotinyl(3aR,4R,6aS)-AEEEA}-[Pra][dR][dS][dY][dN][dK][Lys(N3)][AEEEA][Pra][dR][dR][dA][dThr(3ξ)][dS][Lys(N3)]-NH2; triazole 1-7, 9-15) | – | resistance to trypsin digestion; also recorded: resistant to trypsin digestion | slightly weaker binding | – | – | – | – | – | –
6 | C[C@@H]1NC(=O)[C@H](CCCNC(=N)N)NC(=O)[C@H](CCCNC(=N)N)NC(=O)[C@@H](N)Cc2cn(nn2)CCCC[C@@H](C(=O)NCCCOCCOCCOCCCNC(=O)CCCCC2SC[C@H]3NC(=O)N[C@@H]23)NC(=O)[C@H](CO)NC(=O)[C@H](CCC(N)=O)NC1=O (stereo partly shown) [Cy(RRAQSX1X2), Cy(RRAQSX1X2)-PEG3-biotin] (H-[Pra]RRAQS[Lys(N3)]-X1; triazole 1-7) | – | – | – | – | – | positive ELISA signals | positive ELISA signals | Binding was destroyed | –
